Reference: patent US10842806B2, “Methods for treating ocular inflammatory disorders” (Massachusetts Eye and Ear Infirmary, priority 2011, dated 2020)

How the values were obtained:
[1] = system: TNF-α; assay: TNF-α ELISA in aqueous humor, retina and serum of EIU rats; assay type: in vivo, Lewis rats; conditions: LPS + AICAR
Protocol: Male Lewis rats ranging from 6-8 weeks old (Charles River, Wilmington, Mass.) were used for these studies. To study the effects of AICAR pretreatment, AICAR and PBS (for placebo treatment) were delivered via intraperitoneal injection of AICAR (50 mg/kg or 100 mg/kg body weight; Sigma) diluted in 150 μl PBS or equal volume of PBS at 6 hours before and at the same time as LPS injection. Four experimental groups of rats were compared: (1) Normal: no treatment (2) AICAR: normal rats treated with AICAR 6 hours before examination; (3) LPS: EIU rats treated with PBS; (4) LPS+AICAR: EIU rats treated with AICAR. Two additional groups of rats were used to study the effects of AICAR (50 mg/kg) given either at the same time as LPS injection or at 6 hours after LPS injection. Under deep anesthesia, experimental rats were sacrificed and the retinas were carefully removed 24 hours after LPS injection, placed into 200 μl of lysis buffer and then sonicated. The lysate was centrifuged at 13,000 rpm for 10 minutes at 4° C. and supernatant was isolated. […] Cytokine and chemokine levels in the serum, aqueous humor, and retina were assessed using the rat CCL2/MCP-1 kit (Invitrogen, Camarillo, Calif.), the rat TNF-α kit (R&D system, Minneapolis, Minn.) and the rat ICAM-1 kit (R&D systems) by ELISA.

[2] = system: IRBP-reactive T cells (LN cells); assay: LN cells from untreated EAU mice cultured with IRBP peptide in the presence of AICAR; assay type: cell-based
Protocol: To measure cell proliferation, LN cells were resuspended at 5×10^5 cells per 200 μl of medium in 96-well flat-bottom plates. Cells were incubated for 72 hours and proliferation during the last 12 hours was measured by using a bromodeoxyuridine (BrdU) cell proliferation assay kit (Millipore, Billerica, Mass.). Supernatant in the culture medium was collected at 48 hours and cytokine production in the supernatant was measured by ELISA using the Quantikine mouse IFN-γ, IL-4, IL-10 and IL-17 kits (R&D system, Minneapolis, Minn.).
To assess the effect of AICAR on already developed IRBP-specific T cells, LN cells from untreated EAU mice were cultured with IRBP peptide in the presence of AICAR (FIGS. 10A-10E). Specifically, LN cells were resuspended at 5×10^5 cells per 200 μl of medium in 96-well flat-bottom plates. Triplicate samples of cells were stimulated with or without IRBP at the indicated concentrations. AICAR was added at the indicated concentrations. Cell proliferation and cytokine production were measured as previously described in Example 10.

[3] = system: CCL2/MCP-1; assay: CCL2/MCP-1 ELISA in aqueous humor, retina and serum of EIU rats; assay type: in vivo, Lewis rats; conditions: LPS + AICAR
Protocol: Male Lewis rats ranging from 6-8 weeks old (Charles River, Wilmington, Mass.) were used for these studies. To study the effects of AICAR pretreatment, AICAR and PBS (for placebo treatment) were delivered via intraperitoneal injection of AICAR (50 mg/kg or 100 mg/kg body weight; Sigma) diluted in 150 μl PBS or equal volume of PBS at 6 hours before and at the same time as LPS injection. Four experimental groups of rats were compared: (1) Normal: no treatment (2) AICAR: normal rats treated with AICAR 6 hours before examination; (3) LPS: EIU rats treated with PBS; (4) LPS+AICAR: EIU rats treated with AICAR. Two additional groups of rats were used to study the effects of AICAR (50 mg/kg) given either at the same time as LPS injection or at 6 hours after LPS injection. Under deep anesthesia, experimental rats were sacrificed and the retinas were carefully removed 24 hours after LPS injection, placed into 200 μl of lysis buffer and then sonicated. The lysate was centrifuged at 13,000 rpm for 10 minutes at 4° C. and supernatant was isolated. Three hours after LPS injection, blood samples were collected from the heart and subsequently centrifuged at 3000 rpm for 30 minutes at 4° C., and serum samples were separated. Cytokine and chemokine levels in the serum, aqueous humor, and retina were assessed using the rat CCL2/MCP-1 kit (Invitrogen, Camarillo, Calif.), the rat TNF-α kit (R&D system, Minneapolis, Minn.) and the rat ICAM-1 kit (R&D systems) by ELISA.

[4] = system: TNF-α, IL-6 and IFN-γ in the retina; assay: Retinal cytokine mRNA (real-time PCR) and protein (ELISA) in EAU mice; assay type: in vivo, C57BL/6 (WT) mice
[5] = system: adherent leukocytes in retinal vessels; assay: Leukocyte adhesion to retinal vessels (Concanavalin A lectin staining); assay type: in vivo, Lewis rats
Protocol: Male Lewis rats ranging from 6-8 weeks old (Charles River, Wilmington, Mass.) were used for these studies. To study the effects of AICAR pretreatment, AICAR and PBS (for placebo treatment) were delivered via intraperitoneal injection of AICAR (50 mg/kg or 100 mg/kg body weight; Sigma) diluted in 150 μl PBS or equal volume of PBS at 6 hours before and at the same time as LPS injection. Four experimental groups of rats were compared: (1) Normal: no treatment (2) AICAR: normal rats treated with AICAR 6 hours before examination; (3) LPS: EIU rats treated with PBS; (4) LPS+AICAR: EIU rats treated with AICAR. Two additional groups of rats were used to study the effects of AICAR (50 mg/kg) given either at the same time as LPS injection or at 6 hours after LPS injection. Inflammation in the posterior segment of the eye is seen in EIU with the adherence of recruited leukocytes to the retinal vascular endothelium (Koizumi et al. (2003) INVEST. OPHTHALMOL. VIS. SCI. 44:2184-2191). Leukocyte adhesion to the retinal vessels was evaluated at 24 hours after EIU induction by using the Concanavalin A (Con A) lectin staining technique (Smith et al. (1994) INVEST. OPHTHALMOL. VIS. SCI. 35:101-111). […] The flatmounts were imaged using an epifluorescence microscope (DM RXA; Leica) and the total number of Con A-stained adherent leukocytes per retina was counted.

[6] = system: experimental autoimmune uveitis (EAU); assay: Histological scoring of EAU (H&E sections); assay type: in vivo, C57BL/6 (WT) mice
[7] = AICAR 200 mg/kg treated EAU mice vs control EAU mice

Adherent leukocytes in AICAR-only-treated rats ([5]; normal rats, AICAR only, n=6): few adherent leukocytes
SMILES: NC(=O)c1ncn([C@@H]2O[C@H](CO)[C@@H](O)[C@H]2O)c1N [AICAR, 5-aminoimidazole-4-carboxamide-1-β-d-ribofuranoside]
TNF-α in serum ([1]; 3 hours after LPS, n=11, LPS 147.2 ± 337.1, p 0.475): 57.8 ± 143.1 pg/mL
TNF-α in aqueous humor ([1]; 24 h after LPS, n=12, LPS 277.8 ± 123.9): 92.5 ± 140.5 pg/mL
IFN-γ production in vitro [2]: suppressed
IL-4 production in vitro [2]: not significantly induced
IL-10 production in vitro [2]: suppressed
IL-17 production in vitro [2]: suppressed
T cell proliferation in vitro [2]: suppressed
MCP-1 in serum ([3]; 3 hours after LPS, n=11, LPS 6.8 ± 0.5): 0.4 ± 0.2 ng/mL
MCP-1 in aqueous humor ([3]; 24 h after LPS, n=12, LPS 4.4 ± 3.9): 0.8 ± 1.0 ng/mL
MCP-1 in retina ([3]; 24 h after LPS, n=14, LPS 18.7 ± 11.3): 8.8 ± 2.9 pg/total retinal protein
IFN-γ mRNA in retina [4, 7]: significantly reduced
IL-6 mRNA in retina [4, 7]: significantly reduced
TNF-α mRNA in retina [4, 7]: significantly reduced
IL-6 protein level in retina ([4]; AICAR 200 mg/kg treated EAU mice, 21 days after immunization, ELISA): suppressed
Number of Con A-stained adherent leukocytes per retina ([5]; AICAR 50 mg/kg pretreatment, 24 h after LPS, n=11, EIU rats 1163±244): 576±249 cells
EAU mean pathologic score ([6]; AICAR 200 mg/kg i.p. daily day 0 to 21, day 21, scale 0-4, control 1.65±0.68): 0.53±0.73
EAU mean pathologic score, effector phase treatment ([6]; AICAR administered from day 8 to 21 after immunization, n=8, controls 1.03±0.75): 0.13±0.27
